Test results: US20250197354A1, “SOLID STATE FORMS OF LX9211 AND SALTS THEREOF” (TEVA PHARMACEUTICALS INTERNATIONAL GMBH, priority 2022, published 2025)
Values after ≈ are worked out from the molar mass of the structure shown.

Assays:
Format in all cases: physicochemical
DVS water uptake = conditions: at least up to 90% RH
[1] = Strong grinding and solvent drop grinding, XRPD analysis
Method: (§1) Sample after being powdered in a mortar and pestle is applied directly on a silicon plate holder. The X-ray powder diffraction pattern was measured with Philips X'Pert PRO X-ray powder diffractometer, equipped with Cu irradiation source=1.54184 Å (Ångström), X'Celerator (2.022° 2θ) detector. Scanning parameters: angle range: 3-40 deg., step size 0.0167, time per step 37 s, continuous scan.
Samples of LX9211 dihydrogen phosphate form S1 were subjected to strong grinding and to solvent drop grinding in acetone, ethanol (96%), and 2-propanol). Grinding was carried out on the samples alone, or in the presence of the solvent. In these experiments, about 20 mg of the sample is placed in a mortar and ground with a pestle for 2 minutes. The solvent, when used, as added to the crystalline material before grinding, in a volume of 10 microliters. XRPD analysis performed on each of the samples after the grinding experiment, confirmed no change in the starting material (Table 4):
Samples of LX9211 dihydrogen phosphate form S3 were subjected to strong grinding and to solvent drop grinding in acetone, ethanol (96%), and 2-propanol). Grinding was carried out on the samples alone, or in the presence of the solvent. In these experiments, about 20 mg of the sample is placed in a mortar and ground with a pestle for 2 minutes. The solvent, when used, as added to the crystalline material before grinding, in a volume of 10 microliters. XRPD analysis performed on each of the samples after the grinding experiment, confirmed no change in the starting material (Table 6):
Samples of LX9211 camsylate form K1 were subjected to strong grinding and to solvent drop grinding in acetone, ethanol (96%), and 2-propanol). Grinding was carried out on the samples alone, or in the presence of the solvent. In these experiments, about 20 mg of the sample is placed in a mortar and ground with a pestle for 2 minutes. The solvent, when used, as added to the crystalline material before grinding, in a volume of 10 microliters. XRPD analysis performed on each of the samples after the grinding experiment, confirmed no change in the starting material (Table 8):
Samples of LX9211 hemihydrogen phosphate form S5 were subjected to strong grinding and to solvent drop grinding in acetone, ethanol (96%), and 2-propanol). Grinding was carried out on the samples alone, or in the presence of the solvent. In these experiments, about 20 mg of the sample is placed in a mortar and ground with a pestle for 2 minutes. The solvent, when used, as added to the crystalline material before grinding, in a volume of 10 microliters. XRPD analysis performed on each of the samples after the grinding experiment, confirmed no change in the starting material (Table 10): […]

[2] = Compression at a pressure of 1 ton, XRPD analysis; conditions: hydraulic press, 2 minutes
Method: as §1
A sample of LX9211 dihydrogen phosphate form SI was subjected to a pressure of 1 ton (Perkin Elmer Hydraulic Press, set to 1 tons).
A sample of LX9211 dihydrogen phosphate form S3 was subjected to a pressure of 1 ton (Perkin Elmer Hydraulic Press, set to 1 tons).
A sample of LX9211 camsylate form K1 was subjected to a pressure of 1 ton (Perkin Elmer Hydraulic Press, set to 1 tons).
A sample of LX9211 hemihydrogen phosphate form S5 was subjected to a pressure of 1 ton (Perkin Elmer Hydraulic Press, set to 1 tons).

[3] = Solubility in water and pH 4.5 buffer, HPLC; conditions: 24 hours, 37±0.2° C.; for Solubility (mg/mL) pH 4.5: pH 4.5 buffer (USP)
Method: The solubilities of LX9211 dihydrogen phosphate forms S1 and S3 and LX9211 dihydrogen phosphate and urea, and LX9211 free base form A were determined in water and pH 4.5 buffer as follows:
About 80 mg of samples of the starting materials were weighed into 15 ml PP centrifuge tubes. 8 ml of appropriate buffer solution (pH 4.5 according to USP 35-NF 30 Buffer Solutions) or water was added. Tubes were stoppered and shaken at 160 rpm for 24 hours at 37±0.2° C. in an incubator shaker (Innova 4080, New Brunswick Scientific). Suspensions were filtered through 0.45 μm […] syringe filter (CHROMAFIL PTFE-45/25, Macherey-Nagel). Filtrates were sampled and concentration of the starting material was determined by HPLC according to corresponding standard.

[4] = 2-propanol 10 microliters, solvent drop grinding for 2 minutes
[5] = Acetone 10 microliters, solvent drop grinding for 2 minutes
[6] = Ethanol (96%) 10 microliters, solvent drop grinding for 2 minutes
[7] = No solvent, strong grinding in mortar for 2 minutes

Compound	hygroscopicity (DVS) (DVS water uptake)	water uptake (DVS) (DVS water uptake)	XRPD analysis results after grinding [1, 4]	XRPD analysis results after grinding [1, 5]	XRPD analysis results after grinding [1, 6]	XRPD analysis results after grinding [1, 7]	XRPD analysis after pressure [2]	Solubility (mg/mL) pH 4.5 [3] [mg/mL]	Solubility (mg/mL) water [3] [mg/mL]
CC(C)C[C@](C)(N)COc1ccc(-c2ccnc(C(F)F)c2)nc1C(F)F [LX9211 camsylate form K1]	non-hygroscopic	less than 0.1%	No polymorphic conversion	No polymorphic conversion	No polymorphic conversion	No polymorphic conversion	no polymorphic conversion		
CC(C)C[C@](C)(N)COc1ccc(-c2ccnc(C(F)F)c2)nc1C(F)F [LX9211 free base form A, (S)-1-((2′,6-bis(difluoromethyl)-[2,4′-bipyridin]-5-yl)oxy)-2,4-dimethylpentan-2-amine]								9.7	0.1 (≈ 259 µM)
CC(C)C[C@](C)(N)COc1ccc(-c2ccnc(C(F)F)c2)nc1C(F)F [LX9211 dihydrogen phosphate form S1]			No polymorphic conversion	No polymorphic conversion	No polymorphic conversion	No polymorphic conversion	no polymorphic conversion	8.1	25.0
CC(C)C[C@](C)(N)COc1ccc(-c2ccnc(C(F)F)c2)nc1C(F)F [LX9211 dihydrogen phosphate and urea form U1]								16.4	24.4
CC(C)C[C@](C)(N)COc1ccc(-c2ccnc(C(F)F)c2)nc1C(F)F [LX9211 dihydrogen phosphate form S3]			No polymorphic conversion	No polymorphic conversion	No polymorphic conversion	No polymorphic conversion	no polymorphic conversion	13.8	25.0
